Measurements published in publication PMC7520419 (The AAPS Journal, 2020).
Values after ≈ are worked out from the molar mass of the structure shown. Like-named read-outs stand apart in the source and are kept apart here.

Tests used:
[1] = PBPK food effect modeling (Simcyp V17.1 and/or GastroPlus V9.5; Model 1 / Model 2); design: species or system human
[2] = Solubility measurement in biorelevant media (FaSSIF-V2, FeSSIF-V2); conditions: 37 °C, thermodynamic from solid
[3] = cited from earlier work; for Observed AUC(0-inf) Fasted / Observed Cmax Fasted / Observed AUC(0-inf) Fed / Observed Cmax Fed / Observed AUC Ratios (Fed/Fasted) / Observed Cmax Ratios (Fed/Fasted): ref published clinical data (Table I)
[4] = pKa
[5] = test system: Caco-2; conditions: not generated within this working group; ref Table I; cited from earlier work
[6] = Solubility measurement in aqueous buffer solutions; conditions: pH 6.5, aqueous buffer, thermodynamic from solid
Protocol: The solubility of the drug substances was determined in biorelevant media as well as in aqueous buffers at different pH. Fasted state simulated gastric fluid (FaSSGF) ([37]), fasted state simulated intestinal fluid (FaSSIF-V2) ([38]), and fed state simulated intestinal fluid (FeSSIF-V2) ([39]) were prepared according to the instructions provided by Biorelevant (Biorelevant.com Ltd., London, UK). […] For neutral compounds, solubility was determined at pH 2, pH 4, and pH 7.
For freely soluble compounds, the extent of solubilization was measured only up to 10 mg/mL.

[7] = design: method as in Table I reference column; conditions: not generated within this working group; ref Table I; cited from earlier work
[8] = Effective human jejunum permeability (Peff,man) used in the PBPK model; type: in vitro ADME; conditions: human, 1 h
Protocol: Permeation rates of the compounds, including reference compounds, were measured in the apical-to-basolateral (AB) direction. The donor and receiver wells were sampled immediately after application of the compound to the donor well to determine baseline concentrations, and again after 1 h. Quantification was done using high-performance liquid chromatography combined with mass spectrometry (HPLC-MS/MS) analysis and monolayer integrity was verified by analyzing the receiver samples for LuY fluorescence in a plate reader.

[9] = not generated within this working group; ref Table I; cited from earlier work
[10] = clinically observed PK change (AUC, Cmax) fed vs fasted, compiled by literature search
[11] = direction, AUC and/or Cmax ratio fed to fasted, BE criteria 0.8–1.25, ref drug label

SMILES | AUC Ratio of Ratios (Sim'd / Obs'd) ([1]; Model 1) | Cmax Ratio of Ratios (Sim'd / Obs'd) ([1]; Model 1) | AUC Ratio of Ratios (Sim'd / Obs'd) ([1]; Model 2) | Cmax Ratio of Ratios (Sim'd / Obs'd) ([1]; Model 2) | Observed AUC(0-inf) Fasted ([3]; Model 1) | Observed Cmax Fasted ([3]; Model 1) | Observed AUC(0-inf) Fed ([3]; Model 1) | Observed Cmax Fed ([3]; Model 1) | Observed AUC Ratios (Fed/Fasted) ([3]; Model 1) | Observed Cmax Ratios (Fed/Fasted) ([3]; Model 1) | Observed AUC(0-inf) Fasted ([3]; Model 2) | Observed Cmax Fasted ([3]; Model 2) | Observed AUC(0-inf) Fed ([3]; Model 2) | Observed Cmax Fed ([3]; Model 2) | Observed AUC Ratios (Fed/Fasted) ([3]; Model 2) | Observed Cmax Ratios (Fed/Fasted) ([3]; Model 2) | Food Effect [3, 10] | pKa ([4]; pKa (b, basic)) | Apparent permeability (Caco-2) [5] | Food Effect [3, 11] | other results
CN/C(=N/CCSCc1nc[nH]c1C)NC#N [Cimetidine] | 1.14 | 0.87 | 1.19 | 1.10 | 4880 ng·h/mL | 900 ng/mL | 4150 ng·h/mL | 810 ng/mL | 0.85 | 0.90 | 5350 ng·h/mL | 890 ng/mL | 4580 ng·h/mL | 800 ng/mL | 0.86 | 0.90 | None (none if no significant change in AUC and Cmax with food) | 6.9 | 5.4 (Caco-2)^^ × 10^−6 cm/s | – | solubility ([2]; FaSSIF-V2 (fasted state simulated intestinal fluid), FaSSIF solubility): 22 mg/mL (≈ 87.2 mM); solubility ([2]; FeSSIF-V2 (fed state simulated intestinal fluid), FeSSIF solubility): 21.5 mg/mL (≈ 85.2 mM)
CC(C)(C)c1nc(-c2cccc(NS(=O)(=O)c3c(F)cccc3F)c2F)c(-c2ccnc(N)n2)s1 [Dabrafenib] | – | – | – | – | – | – | – | – | – | – | 12100 ng·h/mL | 2160 ng/mL | 8470 ng·h/mL | 1070 ng/mL | 0.70 | 0.49 | – | 2.2 | – | Negative (negative if ratio fasted > fed) | pKa ([4]; pKa (a, acidic)): 6.6; solubility [6]: 0.001 mg/mL (≈ 0.00192 mM); FaSSIF solubility [7]: 6.2^^ μg/ml; FeSSIF solubility [7]: 6.8^^ μg/ml
Cc1ccc(-c2ncc(Cl)cc2-c2ccc(S(C)(=O)=O)cc2)cn1 [Etoricoxib] | 1.05 | 0.97 | 1.06 | 1.25 | 44400 ng·h/mL | 2890 ng/mL | 42200 ng·h/mL | 1890 ng/mL | 0.95 | 0.65 | 44400 ng·h/mL | 2890 ng/mL | 42200 ng·h/mL | 1890 ng/mL | 0.95 | 0.65 | Negative (negative if ratio fasted > fed) | 4.5 | 52.3 (Caco-2)^^ × 10^−6 cm/s | Negative (negative if ratio fasted > fed) | food effect (FE) direction ([3]; ref drug label): negative FE; Effective permeability [8]: 480 ×10⁻⁶ cm/s; Solubility at pH 6.5 [9]: 67^^ μg/ml; FaSSIF solubility [7]: 67^^ μg/ml; FeSSIF solubility [7]: 95^^ μg/ml
NNC(=O)c1ccncc1 [Isoniazid] | 1.08 | 1.48 | 0.91 | 1.46 | 24600 ng·h/mL | 5000 ng/mL | 19500 ng·h/mL | 2500 ng/mL | 0.79 | 0.50 | 18500 ng·h/mL | 5870 ng/mL | 14800 ng·h/mL | 2730 ng/mL | 0.80 | 0.47 | Negative (negative if ratio fasted > fed) | 1.8 | 16 (Caco-2)^^ × 10^−6 cm/s | Negative (negative if ratio fasted > fed) | solubility [6]: 128 mg/mL (≈ 933 mM); Effective permeability [8]: 400 ×10⁻⁶ cm/s
COCCc1ccc(OCC(O)CNC(C)C)cc1 (stereo not shown) [Metoprolol] | – | – | – | – | 302 ng·h/mL | 111 ng/mL | 426 ng·h/mL | 148 ng/mL | – | – | – | – | – | – | – | – | – | – | – | – | solubility [6]: 17.1 mg/mL (≈ 64 mM)
